Here are results for five compounds from PMC7216235, “The Ionophoric Activity of a Pro-Apoptotic VEGF165 Fragment on HUVEC Cells” (International Journal of Molecular Sciences, 2020).

The test system of data set [1] is HUVEC cells. Put plainly: Cell viability assay (MTS). The format is cell-based, human. To be noted: for reduction of cell viability at the higher dose tested: time at which it starts (in words): 50 µM peptide, 24 h and 48 h. Here is the method: HUVECs were maintained in EGM®-2 BulletKit® medium. Cells were grown to 80% confluence at 37 °C in a humid atmosphere in the presence of 5% CO2. Passages 2–5 were used. Cells were starved for 12 h, using endothelial cell basal medium (EBM®-2 basal medium, 0,2% Fetal Bovine Serum) before all experiments.
The MTS assay (CellTiter 96® AQueous One Solution, Promega) was performed to compare the viability of cells treated with different concentrations of peptides (VEGF73-101, VEGF84-101 VEGFQ79G, and VEGFI83G) and CuSO4, and their complexes. We considered two different growth conditions for our treatments to be examined, to which we refer in this paper as proliferation conditions or survival conditions. Proliferation condition: Cells (3 replicates) were seeded in 96-well plates at a density of 1.5 × 10^3 cell/well, treated in EGM®-2 BulletKit®, 2% Fetal Bovine Serum (FBS) without VEGF supplementation. Survival condition: Cells (3 replicates) were seeded in 96-well plates at a density of 3 × 10^3 cell/well in an EBM®-2 basal medium of 0.2% FBS without supplements and VEGF. MTS assay was used following 24 h or 48 h of treatments according to the manufacturer’s instructions. The required copper and peptides were pre-mixed together in water in order to allow peptide/copper complexes formations before their addition to the cells. When the experiments were performed in the presence of bathocuproine disulfonic acid disodium salt (BCS), in proliferation condition, 50 µM of the copper chelator was added during the treatment for 24 h. The results were reported as the percentage of viable cells, with respect to the control set, to 100%.

Data set [2] can be described thus: RP-HPLC retention time on PepMap C18 column (UHPLC-ESI MS) as a measure of peptide hydrophobicity. The format is physicochemical. The note with it: used by the paper as measure of relative hydrophobicity, amidated-acetylated peptides, PepMap C18 column 300Å (75 μm × 150 mm), linear gradient 2% to 99% B (20% water–80% acetonitrile) with 0.1% FA over 40 min, 0.3 µL/min, 40 °C. Here is the method:
Here, we tested peptide lipophilic features by high-performance liquid chromatography using a reverse phase RP18 column.
To evaluate the relative hydrophobicity of the peptides, the retention times of amidated-acetylated peptides were recorded on a PepMap C18 column 300Å (75 μm × 150 mm) using a linear gradient from 2% to 99% of B (20% water–80% acetonitrile) containing 0.1% FA over 40 min, at a flow rate of 0.3 µL/min. The injection volume was 5 μL for analysis. The Q-exactive mass spectrometer was equipped with nano electrospray ion source (Nano EASY-Spray). The thermostatted column compartment was at 40 °C. The optimized parameters of mass spectrometry were illustrated as below: spray voltage, + 3.0 kV; capillary temperature, 250 °C; full MS; resolution, 70,000; automatic gain control (AGC) target, 3.0 × 10^6; maximum injection time (IT), 200 ms; scan range, 150–2000m/z. Nitrogen was used for spray stabilization. All data collected in profile mode were acquired and processed using Thermo Xcalibur 3.0 software.

Data set [3] can be described thus: Model membrane permeabilization assay: release of 6-carboxyfluorescein from dye-filled LUVs. To be noted: 10 µM peptide, 200 µM LUVs 5:3:2 POPC/POPE/POPS, 10 mM phosphate buffer, 100 mM NaCl, pH 7.4, 25 °C, after 800 min, fluorescence λex 494/λem 520 nm, average of three experiments. How it is done: Figure 2 Dye release (membrane leakage) from model membranes induced by VEGF73-101, VEGF84-101, VEGFQ79G, and VEGFI83G. Kinetics of dye release from 200 µM LUVs of 5:3:2 POPC/POPE/POPS in the presence of 10 µM of each peptide. All experiments were performed in 10 mM phosphate buffer, 100 mM NaCl, pH 7.4, at 25 °C. Results are the average of three experiments.
Figure 7 Peptide induced release of 6-carboxyfluorescein from 200 μM POPC:POPE:POPS LUVs measured in the presence of (a) 10 μM peptides/Cu and (b) 10 μM VEGF73-101 (magenta curve) and its 1:1 Cu(II) complex (black curve), 10 μM VEGFI83G (green curve) and its 1:1 Cu(II) complex (blue curve). Experiments were in triplicate at 25 °C in 10 mM phosphate buffer, 100 mM NaCl, pH 7.4.
Model membranes were prepared according to a procedure described elsewhere. To mimic the lipid composition of endothelial cell membranes, we used POPC:POPE:POPS (5:3:2 molar ratio) lipid mixture. Multilamellar vesicles (MLVs) were obtained by vortexing a chloroform lipid solution under a gentle nitrogen flow. Next, the lipid solution was dried overnight in a vacuum at room temperature in a round-bottomed flask to remove all the residual solvent. […] Pore formation in the lipid bilayer was monitored by measuring the increase in fluorescence emission intensity due to dye dilution (dequenching) in the buffer upon membrane leakage. […]

In data set [4] the test system is HUVEC cells. Put plainly: Annexin V-FITC/PI staining, flow cytometry. It is filed as cell-based, human. The note with it: 72 h; for induction of apoptosis (in words): 5 µM peptide, EBM-2 0.2% FBS, PI/Annexin V, two experiments in triplicate. How it is done: Annexin V/ PI is a commonly used approach for studying apoptotic cells. Propidium iodide (PI) is widely used in conjunction with Annexin V to determine if cells are viable, apoptotic, or necrotic through differences in plasma membrane integrity and permeability. The fluorescence of AnnexinV-FITC/PI assay was read using flow cytometry. HUVEC cells were seeded on a 12-well plate at a density of 2.5 ×10^4 and grown for 48 h before treatments. During the last 24 h cells were starved in the same EBM-2 basal medium containing 0.2% fetal bovine serum without EC (endothelial cell) supplements. Cells were then exposed to 5 µM peptide for 72 h. When required, 10 µM CuSO4 was used in combination with peptides. Five hours of incubation in the presence of 1 µM STS (staurosporine) was used as a positive control for cell death. Cells were harvested and stained with Annexin V-FITC (Fluorescein isothiocyanate) and propidium iodide using an annexin V-FITC apoptosis detection kit (Life technologies, Monza (MB), Italy), following the manufacturer’s instructions. Briefly, cells were pelleted and resuspended in 800 µL PBS buffer containing 20 µL of annexin V, 20 µL of propidium iodide, and PI (Annexin V/Dead Cell Apoptosis Kit (Invitrogen), and kept for 10 min at 25 °C in the dark. Samples were analyzed within 1 h by flow cytometry using a CyFlow® ML (Sysmex Partec Milan-Italy). The fluorescent scatter plots indicated three types of cell populations: viable (Annexin V-FITC−/PI−), dead (Annexin V-FITC + /PI+), and apoptotic (Annexin V-FITC + /PI−). Quadrant analysis (FlowMax software -Partec) was performed on the gated fluorescent scatter plot to examine the percentage of live, dead, and apoptotic cell populations. Experiments were repeated twice in triplicate.
Sample were analyzed, 2 × 10^4 cells per sample, using a CyFlow® ML flow cytometer (Partec) system equipped with three laser sources and 10 optical parameters with dedicated filter setting and a high numerical aperture microscope objective (50× NA 0.82) for the detection of different scatter and fluorescence signals. […]
Background: Flow cytometry measures light scatter and fluorescence of single cells or particles in a stream.

[5] abbreviates: survival conditions (EBM2, 0.2% FBS without growth factors), MTS.

As to `O=S(=O)([O-])[O-].[Cu+2]` [Cu(II), copper sulfate, reference compound], in the data set on HUVEC cells [1] (24 h, same concentrations as in the complexes, survival and proliferation conditions, MTS (Figure 9)), the “cell viability of Cu(II) alone (in words)” value is on record as “had no effects”.

As for “Ac-ESNITMQIMRIKPHQGQHIGEMSFLQHNK-NH2 [VEGF73-101]”, the “RP-HPLC retention time tR” value in data set [2] is 21.7 min. The “dye release (membrane leakage)” value in data set [3] is around 5%. For the same compound, the “cell viability (in words)” value in the data set on HUVEC cells [1] (5 µM peptide, 48 h, survival conditions (EBM2, 0.2% FBS without growth factors), MTS) is reported as “significantly decrease cell viability”. Also, the “reduction of cell viability at the higher dose tested: time at which it starts (in words)” value (from here on “reduction of cell viability”) with HUVEC cells [1] (setting [5]) is on record as “starting at 24 h”. The “effect of the copper chelator BCS on the peptide's effect on cell viability (in words)” value in the data set on HUVEC cells [1] (BCS 50 µM, 24 h, proliferation conditions, no added copper, MTS (Figure S10)) is reported as “not significantly altered by BCS”. Further, the “induction of apoptosis (in words)” value in the data set with HUVEC cells [4] is listed as “able to induce apoptosis”. For the same compound, the “live cells in the presence of Cu(II) (in words)” value in the data set on HUVEC cells [4] (peptide 5 µM with copper(II) 10 µM, PI/Annexin V (Figure 10)) is “caused a decrease in live cells”.

On to “Ac-ESTNIMGIMRIKPHQGQHIGEMSFLQHNK-NH2 [VEGFQ79G, VEGF73-101 with point mutation in position 79 (Gln-Gly)]”, for which the “RP-HPLC retention time tR” value in data set [2] turned out to be 21.4 min. The “reduction of cell viability” value in the data set on HUVEC cells [1] (setting [5]) is given as “starting at 48 h”.

Take “Ac-ESTNIMQIMRGKPHQGQHIGEMSFLQHNK-NH2 [VEGFI83G, VEGF73-101 with point mutation in position 83 (Ile-Gly)]”: the “RP-HPLC retention time tR” value in data set [2] was found to be 20.4 min. The “reduction of cell viability” value with HUVEC cells [1] (setting [5]) is given as “starting at 24 h”.

Ac-KPHQGQHIGEMSFLQHNK-NH2 [VEGF84-101]: the “RP-HPLC retention time tR” value in data set [2] came to 18.2 min. Further, the “reduction of cell viability” value with HUVEC cells [1] (setting [5]) was “all peptides (except VEGF84-101) were able to reduce cell viability”. Besides, the “induction of apoptosis (in words)” value in the data set with HUVEC cells [4] is on record as “Neither the shorter sequence (VEGF84-101), nor the single mutated peptides induced apoptosis”.
